Columns and labels:
[1] = Selectivity ratio of Ki for recombinant mouse macrophage iNOS to Ki for recombinant rat nNOS
[2] = Selectivity ratio of Ki for recombinant bovine eNOS to Ki for recombinant rat nNOS
[3] = target: Nitric oxide synthase 1 (Rattus norvegicus, UniProt P29476); experiment: Inhibition of recombinant rat nNOS expressed in Escherichia coli using L-arginine as substrate assessed as formation of nitric oxide measured up to 60 secs by hemoglobin capture assay
[4] = target: T1, Nitric oxide synthase, inducible (Mus musculus, UniProt P29477); experiment: Inhibition of recombinant mouse macrophage iNOS expressed in Escherichia coli using L-arginine as substrate assessed as formation of nitric oxide measured up to 60 secs by hemoglobin capture assay
T1 sequence (P29477 whole entry): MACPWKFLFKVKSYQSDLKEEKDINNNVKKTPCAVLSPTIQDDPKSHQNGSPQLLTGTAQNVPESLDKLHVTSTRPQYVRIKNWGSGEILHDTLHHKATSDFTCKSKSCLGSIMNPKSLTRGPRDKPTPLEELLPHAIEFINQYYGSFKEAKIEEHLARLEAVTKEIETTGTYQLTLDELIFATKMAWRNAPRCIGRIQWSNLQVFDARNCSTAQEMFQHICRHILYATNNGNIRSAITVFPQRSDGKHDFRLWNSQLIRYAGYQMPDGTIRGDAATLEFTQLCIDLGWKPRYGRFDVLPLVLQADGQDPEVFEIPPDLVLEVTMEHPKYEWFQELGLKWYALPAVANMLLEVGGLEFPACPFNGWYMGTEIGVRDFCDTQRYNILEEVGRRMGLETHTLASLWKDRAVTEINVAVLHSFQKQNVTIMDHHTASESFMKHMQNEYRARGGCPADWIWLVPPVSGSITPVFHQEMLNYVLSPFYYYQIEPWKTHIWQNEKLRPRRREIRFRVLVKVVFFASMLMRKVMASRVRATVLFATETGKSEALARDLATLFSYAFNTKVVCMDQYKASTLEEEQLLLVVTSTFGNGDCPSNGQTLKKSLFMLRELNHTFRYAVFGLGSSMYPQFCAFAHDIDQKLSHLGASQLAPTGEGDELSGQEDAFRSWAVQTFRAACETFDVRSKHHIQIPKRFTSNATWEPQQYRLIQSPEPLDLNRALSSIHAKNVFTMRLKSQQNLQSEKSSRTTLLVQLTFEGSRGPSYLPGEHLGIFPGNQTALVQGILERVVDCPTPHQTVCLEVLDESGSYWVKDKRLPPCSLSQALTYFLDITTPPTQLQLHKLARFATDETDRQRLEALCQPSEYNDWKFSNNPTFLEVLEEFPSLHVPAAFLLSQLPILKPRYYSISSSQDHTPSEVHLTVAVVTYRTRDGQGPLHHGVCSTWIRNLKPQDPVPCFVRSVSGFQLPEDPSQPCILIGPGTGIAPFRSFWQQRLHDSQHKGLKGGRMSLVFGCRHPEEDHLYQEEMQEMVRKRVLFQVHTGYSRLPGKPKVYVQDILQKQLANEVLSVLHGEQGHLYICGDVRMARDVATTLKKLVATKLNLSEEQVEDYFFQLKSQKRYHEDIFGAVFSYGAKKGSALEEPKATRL

[5] = target: T2, Nitric oxide synthase 3 (Bos taurus, UniProt P29473); experiment: Inhibition of recombinant bovine eNOS expressed in Escherichia coli using L-arginine as substrate assessed as formation of nitric oxide measured up to 60 secs by hemoglobin capture assay
T2 sequence (P29473 whole entry): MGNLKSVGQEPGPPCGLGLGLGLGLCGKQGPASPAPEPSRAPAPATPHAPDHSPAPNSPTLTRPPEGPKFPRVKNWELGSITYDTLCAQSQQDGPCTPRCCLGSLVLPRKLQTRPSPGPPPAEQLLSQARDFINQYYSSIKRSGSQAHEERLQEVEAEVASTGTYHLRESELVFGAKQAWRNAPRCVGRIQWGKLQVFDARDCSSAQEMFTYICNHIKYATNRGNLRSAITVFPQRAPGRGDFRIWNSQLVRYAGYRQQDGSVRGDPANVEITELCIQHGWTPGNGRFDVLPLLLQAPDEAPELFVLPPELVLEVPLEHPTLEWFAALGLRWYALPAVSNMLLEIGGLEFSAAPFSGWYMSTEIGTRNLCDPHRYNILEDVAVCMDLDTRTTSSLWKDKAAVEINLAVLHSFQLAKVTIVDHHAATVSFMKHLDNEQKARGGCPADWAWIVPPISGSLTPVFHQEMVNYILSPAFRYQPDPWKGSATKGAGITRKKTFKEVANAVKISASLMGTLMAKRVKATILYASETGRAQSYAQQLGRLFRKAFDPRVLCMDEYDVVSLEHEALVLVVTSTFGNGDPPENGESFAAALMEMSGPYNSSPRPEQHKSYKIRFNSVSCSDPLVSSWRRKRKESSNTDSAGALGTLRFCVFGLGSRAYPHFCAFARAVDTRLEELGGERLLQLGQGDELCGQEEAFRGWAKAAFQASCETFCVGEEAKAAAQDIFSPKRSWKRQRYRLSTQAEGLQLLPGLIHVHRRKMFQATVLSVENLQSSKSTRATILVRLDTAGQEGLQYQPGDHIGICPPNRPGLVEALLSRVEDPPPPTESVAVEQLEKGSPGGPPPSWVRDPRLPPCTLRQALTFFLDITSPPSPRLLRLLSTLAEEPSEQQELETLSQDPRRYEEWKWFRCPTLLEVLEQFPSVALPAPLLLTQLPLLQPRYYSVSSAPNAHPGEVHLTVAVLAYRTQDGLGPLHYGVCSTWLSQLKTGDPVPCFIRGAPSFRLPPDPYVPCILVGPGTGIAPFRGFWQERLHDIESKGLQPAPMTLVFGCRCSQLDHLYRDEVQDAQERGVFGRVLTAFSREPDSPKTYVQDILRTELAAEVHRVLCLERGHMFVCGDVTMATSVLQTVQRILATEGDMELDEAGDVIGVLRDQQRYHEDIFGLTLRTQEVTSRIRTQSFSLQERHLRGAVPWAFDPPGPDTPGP

Sequence of Nitric oxide synthase 1 (P29476 whole entry): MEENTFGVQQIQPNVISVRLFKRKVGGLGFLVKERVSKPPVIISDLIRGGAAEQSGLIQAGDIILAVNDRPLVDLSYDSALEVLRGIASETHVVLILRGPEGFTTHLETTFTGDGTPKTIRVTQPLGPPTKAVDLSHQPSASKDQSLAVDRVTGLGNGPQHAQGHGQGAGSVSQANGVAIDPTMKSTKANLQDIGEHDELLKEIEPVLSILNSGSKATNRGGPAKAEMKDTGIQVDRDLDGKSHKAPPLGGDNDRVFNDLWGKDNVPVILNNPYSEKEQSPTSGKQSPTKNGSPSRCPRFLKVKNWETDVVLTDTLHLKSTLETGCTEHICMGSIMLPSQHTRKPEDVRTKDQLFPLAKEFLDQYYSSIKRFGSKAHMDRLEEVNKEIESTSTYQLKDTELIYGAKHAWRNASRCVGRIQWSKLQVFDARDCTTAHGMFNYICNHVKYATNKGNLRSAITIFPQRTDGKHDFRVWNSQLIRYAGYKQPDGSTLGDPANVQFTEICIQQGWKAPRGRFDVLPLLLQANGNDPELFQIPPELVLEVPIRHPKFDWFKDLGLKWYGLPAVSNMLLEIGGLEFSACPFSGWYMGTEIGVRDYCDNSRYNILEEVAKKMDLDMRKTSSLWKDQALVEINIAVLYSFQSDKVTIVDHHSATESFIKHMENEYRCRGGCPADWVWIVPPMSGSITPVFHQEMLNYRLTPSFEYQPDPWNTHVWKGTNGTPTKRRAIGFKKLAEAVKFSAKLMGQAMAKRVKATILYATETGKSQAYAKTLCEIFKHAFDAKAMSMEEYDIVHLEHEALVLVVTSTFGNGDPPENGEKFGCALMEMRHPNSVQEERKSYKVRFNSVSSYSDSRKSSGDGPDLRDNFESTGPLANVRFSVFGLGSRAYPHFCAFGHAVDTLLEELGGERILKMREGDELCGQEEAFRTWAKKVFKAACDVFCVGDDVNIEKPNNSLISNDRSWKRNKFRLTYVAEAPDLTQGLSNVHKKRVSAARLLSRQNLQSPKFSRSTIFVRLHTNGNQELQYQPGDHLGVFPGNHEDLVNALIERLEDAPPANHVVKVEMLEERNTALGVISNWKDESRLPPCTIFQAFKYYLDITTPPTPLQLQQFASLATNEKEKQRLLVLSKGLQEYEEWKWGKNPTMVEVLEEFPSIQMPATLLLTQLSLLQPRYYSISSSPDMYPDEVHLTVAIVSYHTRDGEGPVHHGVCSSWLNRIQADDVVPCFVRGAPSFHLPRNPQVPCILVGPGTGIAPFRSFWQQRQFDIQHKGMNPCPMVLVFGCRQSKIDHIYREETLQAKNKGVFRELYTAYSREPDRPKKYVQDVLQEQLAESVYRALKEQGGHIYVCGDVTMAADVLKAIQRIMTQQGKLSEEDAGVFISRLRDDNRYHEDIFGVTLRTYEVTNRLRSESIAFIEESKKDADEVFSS

Compound	Ratio Ki [1]	Ratio Ki [2]	Ki [3]	Ki [4]	Ki [5]
Cc1cc(N)nc(COc2cccc(OCC3CCNCC3)c2)c1	146	239			
Cc1cc(N)nc(CCCCCCc2cc(C)cc(N)n2)c1	54	86	33 nM	1800 nM	2840 nM
Cc1cc(N)nc(CCCCCCCc2cc(C)cc(N)n2)c1	25	25	86 nM	2190 nM	2150 nM
Cc1cc(N)nc(CCCCCc2cc(C)cc(N)n2)c1				375 nM	

Next, values leading:

Ratio Ki [1]	Ratio Ki [2]	Ki [3]	Ki [4]	Ki [5]	Compound
140	298				Cc1cc(N)nc(COc2cccc(OCCCN)c2)c1
44	102				Cc1cc(N)nc(COc2cccc(OCc3ccncc3)c2)c1
		4230 nM			Cc1cc(N)nc(COc2ccccc2-c2ccccc2OCC2CCNCC2)c1
		3850 nM			Cc1cc(N)nc(COc2ccccc2-c2ccccc2OCc2ccncc2)c1
31	21	270 nM	8430 nM	5620 nM	Cc1cc(N)nc(COCc2cccc(CNCCc3cccc(F)c3)n2)c1
		2160 nM			Cc1cc(N)nc(COc2cccc(NCCc3cccc(F)c3)c2)c1
